How the values were obtained:
[1] = tested on: mouse astrocytoma DBT subcutaneous xenografts; assay: Mouse astrocytoma DBT subcutaneous tumor model, alone or combined with anti-PD-1 antibody; type: in vivo, BALB/c mice; settings: alone, 5 mg/kg po twice a day, 28 days
Method: Mouse astrocytoma DBT cell suspensions were injected subcutaneously into the right axillary fossa of BALB/c mice under aseptic conditions. The diameters of the subcutaneous xenografts in nude mice were measured with a vernier caliper. The animals were randomly grouped after the xenografts reached an average volume of 100 to 200 mm^3. Compound I was administered orally at a dose of 5 mg/kg (alone or in combination with an anti-PD-1 antibody) twice a day for 28 consecutive days. An anti-PD-1 antibody (Bio X Cell, InVivoMAb anti-mouse PD-1 (CD279) (cat. No. BE0146)) was administered intraperitoneally at a dose of 10 mg/kg (alone or in combination with Compound I) once every three days for 28 consecutive days. Throughout the experiment, the diameters of the xenografts were measured twice a week and the mice were weighed at the same time. The tumor volume (TV) was calculated as TV=½×a×b^2 where “a” and “b” denote the length and width of a tumor, respectively. The relative tumor volume (RTV) was calculated from the measurement results with the calculation formula RTV=Vt/V0, in which V0 is the tumor volume measured upon administration after grouping (i.e., D0) and Vt is the tumor volume from each measurement.
For all dose groups, n=9. The experimental data were analyzed for significant differences using the t-test. […]

[2] = tested on: human glioma U87MG subcutaneous xenografts; assay: Human glioma U87MG subcutaneous xenografts in nude mice; type: in vivo, BALB/c nude mice; settings: for Body Weight (g) D 21 / RTV (mean ± SD) / TV (mm^3, mean ± SD) D 21: D 21; for T/C (%): Day 21
Method: BALB/c nude female mice of 3-4 weeks old were used, and were provided by […] […] OF MATERIA MEDICA, CHINESE ACADEMY OF SCIENCES.
Human glioma U87MG cells were subcutaneously inoculated into the right axillary fossa of a nude mouse (5×10^6 cells/mouse). After a xenograft was formed, the tumor was transferred to a nude mouse for 1 passage.
Tumor tissues at the vigorous growth stage were removed and cut into pieces of approximately 1.5 mm^3. The tumor fragments were inoculated subcutaneously into the right axillary fossa of nude mice under aseptic conditions. The diameters of the subcutaneous xenografts in nude mice were measured with a vernier caliper. The animals were randomly grouped after the xenografts reached an average volume of about 90 mm^3. Compound I was administered orally at doses of 40 mg/kg, 20 mg/kg and 10 mg/kg twice a day for 21 consecutive days. An equal volume of a blank preparation was administered orally twice a day for 21 consecutive days. The positive control drug Axitinib was administered orally at a dose of 40 mg/kg group twice a day for 21 consecutive days. An equal volume of water for injection was administered to the animals in the solvent group. Throughout the experiment, the diameters of the xenografts were measured twice a week and the mice were weighed at the same time. The tumor volume (TV) was calculated as TV=½×a×b^2, where “a” and “b” denote the length and width of a tumor, respectively. The relative tumor volume (RTV) was calculated from the measurement results with the calculation formula RTV=Vt/V0, in which V0 is the tumor volume measured upon administration after grouping (i.e., D0) and Vt is the tumor volume from each measurement. The evaluation index of anti-tumor activity is the relative tumor proliferation rate T/C (%), which is calculated as T/C (%)=(TRTV/CRTV)×100%, in which TRTV denotes the RTV from the treatment group and CRTV denotes the RTV from solvent group.

[3] = tested on: phosphorylated AKT (p-AKT) in BMDM; assay: Western blot of CSF1-stimulated AKT phosphorylation in BMDM; type: cell-based; settings: Mus musculus, 100 nM, 2 h, CSF1 50 ng/mL 15 min
Method: Bone marrow-derived macrophages, after induction by CSF1 for 5 to 7 days, were centrifuged to remove the previous medium. 2 mL of a serum-free medium was added. […] CSF1 factor was added at a final concentration of 50 ng/mL for stimulation for 15 minutes. The culture medium was discarded, and cells were washed three times with pre-cooled PBS. Then, the cells were lysed by adding 1×SDS gel loading buffer. The cell lysates were heated in a boiling water bath for 15 min, and then stored at −20° C.
A protein sample as described above was subjected to SDS-PAGE electrophoresis. Then, the protein was transferred to a nitrocellulose membrane using a semi-dry electrotransfer system. The nitrocellulose membrane was placed in a blocking solution (5% skim milk in TBS-T) and incubated for 2 h at room temperature. Then, the membrane was allowed to react with a primary antibody overnight at 4° C. After the membrane was washed with TBS-T for three times with 15 min each time, the membrane was allowed to react in a secondary antibody dilution at room temperature for 1-2 h. […]
The inhibitory effect of Compound I on CSF1R and its signaling pathway in mouse primary macrophages was detected by immunoblotting assays. Each experiment was independently repeated three times and all experimental results were quantified. […]

SMILES: Cc1cc(NC(=O)c2cccc3cc(-c4cccc5[nH]nc(N)c45)ccc23)ccc1F [Compound I]
- in vivo growth of DBT tumors [1]: no significant inhibitory activity
- Body Weight (g) D 0 ([2]; 10 mg/kg bid × 21 po): 15.7 g
- TV (mm^3, mean ± SD) D 0 ([2]; 10 mg/kg bid × 21 po): 87 ± 17 mm^3
- Body Weight (g) D 21 ([2]; 10 mg/kg bid × 21 po): 17.3 g
- RTV (mean ± SD) ([2]; 10 mg/kg bid × 21 po): 3.57 ± 1.06
- TV (mm^3, mean ± SD) D 21 ([2]; 10 mg/kg bid × 21 po): 302 ± 72 mm^3
- T/C (%) ([2]; 10 mg/kg bid × 21 po): 11.91%
- Body Weight (g) D 0 ([2]; 20 mg/kg bid × 21 po): 16.7 g
- TV (mm^3, mean ± SD) D 0 ([2]; 20 mg/kg bid × 21 po): 87 ± 17 mm^3
- Body Weight (g) D 21 ([2]; 20 mg/kg bid × 21 po): 16.9 g
- RTV (mean ± SD) ([2]; 20 mg/kg bid × 21 po): 2.44 ± 1.58
- TV (mm^3, mean ± SD) D 21 ([2]; 20 mg/kg bid × 21 po): 200 ± 100 mm^3
- T/C (%) ([2]; 20 mg/kg bid × 21 po): 8.14%
- Body Weight (g) D 0 ([2]; 40 mg/kg bid × 21 po): 17.0 g
- TV (mm^3, mean ± SD) D 0 ([2]; 40 mg/kg bid × 21 po): 87 ± 15 mm^3
- Body Weight (g) D 21 ([2]; 40 mg/kg bid × 21 po): 17.6 g
- RTV (mean ± SD) ([2]; 40 mg/kg bid × 21 po): 2.93 ± 0.50
- TV (mm^3, mean ± SD) D 21 ([2]; 40 mg/kg bid × 21 po): 251 ± 37 mm^3
- T/C (%) ([2]; 40 mg/kg bid × 21 po): 9.77%
- inhibition at 0.1 µM [3]: 64.4%

From patent US20230382871A1, “CSF1R KINASE INHIBITOR AND USE THEREOF” (SHANGHAI INSTITUTE OF MATERIA MEDICA, CHINESE ACADEMY OF …, priority 2020, published 2023)
